“And” between values parts separate entries of the source, which are not always exact repeats. Equal entries are not always repeated. Inconclusive results and toxic doses are left out. Cut-off read from the data, not from the text of the source: active = T/C of 150% or more; inactive = T/C below 125%. Numbered stars: 1 amine (or outer) side, 2 acyl side, 3 side chain; on linkers, the order of the positions; unused ones are H or OH. Bridge positions count the residues as written; N and C are the ends. Square brackets hold non-standard residues; d marks the D form. Peptide text beside a SMILES is read from it. I, II: the chains in the order shown. Actinocin(9to1) = Cc1c2oc3c(C)ccc(C(=O)[*:1])c3nc-2c(C(=O)[*:2])c(N)c1=O; NMeV = CN[CH](C(=O)O)C(C)C; Pip = O=C(O)[CH]1CCCCN1; Sar = CNCC(=O)O
Tested on: L1210 leukemia ip in BDF1 mice, survival T/C
Experiment: NCI In Vivo Anticancer Drug Screen. Data for tumor model L1210 Leukemia (intraperitoneal) in B6D2F1 (BDF1) mice
Conditions: endpoint: mean survival time, higher = longer survival
Procedure, shortened: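 Value reflects the ratio of survival in compound-treated mice to survival in vehicle-treated controls, with both groups carrying the same transplanted tumor.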

[1] = dose: 100.0 mg/kg/injection, schedule: Q01DX009 (ip), vehicle: saline
[2] = dose: 100.0 mg/kg/injection, schedule: Q04DX003 (ip), vehicle: saline
[3] = dose: 200.0 mg/kg/injection, schedule: Q01DX009 (ip), vehicle: saline
[4] = dose: 200.0 mg/kg/injection, schedule: Q04DX003 (ip), vehicle: saline
[5] = dose: 400.0 mg/kg/injection, schedule: Q01DX009 (ip), vehicle: saline
[6] = dose: 400.0 mg/kg/injection, schedule: Q04DX003 (ip), vehicle: saline
[7] = dose: 100.0 mg/kg/injection, schedule: Q04DX003 (ip), vehicle: Klucel (hydroxypropylcellulose) (HPC)
[8] = dose: 200.0 mg/kg/injection, schedule: Q04DX003 (ip), vehicle: Klucel (hydroxypropylcellulose) (HPC)
[9] = dose: 400.0 mg/kg/injection, schedule: Q04DX003 (ip), vehicle: Klucel (hydroxypropylcellulose) (HPC)
[10] = dose: 100.0 mg/kg/injection, schedule: Q01DX009 (ip), vehicle: Klucel (hydroxypropylcellulose) (HPC)
[11] = dose: 100.0 mg/kg/injection, schedule: Q01DX009 (ip), vehicle: saline with Tween-80
[12] = dose: 100.0 mg/kg/injection, schedule: Q04DX003 (ip), vehicle: saline with Tween-80
[13] = dose: 200.0 mg/kg/injection, schedule: Q01DX009 (ip), vehicle: saline with Tween-80
[14] = dose: 200.0 mg/kg/injection, schedule: Q04DX003 (ip), vehicle: saline with Tween-80
[15] = dose: 400.0 mg/kg/injection, schedule: Q01DX009 (ip), vehicle: Klucel (hydroxypropylcellulose) (HPC)
[16] = dose: 400.0 mg/kg/injection, schedule: Q01DX009 (ip), vehicle: saline with Tween-80
[17] = dose: 400.0 mg/kg/injection, schedule: Q04DX003 (ip), vehicle: saline with Tween-80
[18] = dose: 100.0 mg/kg/injection, schedule: Q01DX001 (ip), vehicle: saline
[19] = dose: 200.0 mg/kg/injection, schedule: Q01DX001 (ip), vehicle: saline
[20] = dose: 400.0 mg/kg/injection, schedule: Q01DX001 (ip), vehicle: saline
[21] = dose: 100.0 mg/kg/injection, schedule: Q01DX001 (ip), vehicle: saline with Tween-80
[22] = dose: 200.0 mg/kg/injection, schedule: Q01DX001 (ip), vehicle: saline with Tween-80
[23] = dose: 400.0 mg/kg/injection, schedule: Q01DX001 (ip), vehicle: saline with Tween-80
[24] = dose: 200.0 mg/kg/injection, schedule: Q01DX009 (ip), vehicle: Klucel (hydroxypropylcellulose) (HPC)
[25] = dose: 100.0 mg/kg/injection, schedule: Q01DX001 (ip), vehicle: carboxymethylcellulose (CMC)
[26] = dose: 200.0 mg/kg/injection, schedule: Q01DX001 (ip), vehicle: carboxymethylcellulose (CMC)

Measured: T/C

O=C(O)c1ccc(N2C(=O)c3ccccc3C2=O)cc1[N+](=O)[O-]
inactive: [1] 103 % of control | [2] 100 % of control | [3] 108 % of control | [4] 104 % of control | [5] 107 % of control | [6] 107 % of control

O=C(Nc1ccccc1F)C(F)(F)F
inactive: [7] 103 % of control | [8] 105 % of control | [9] 97 % of control

Cc1ccc(N2C(=O)CC(Sc3ccccc3N)C2=O)cc1Cl (stereo not drawn)
inactive: [10] 88 % of control | [11] 88 % of control | [7] 93 % of control | [12] 86 % of control and 89 % of control | [13] 96 % of control | [8] 93 % of control | [14] 87 % of control and 91 % of control | [15] 90 % of control | [16] 95 % of control | [9] 94 % of control | [17] 86 % of control and 87 % of control

OC1C2CCN(CC2)C1CN1CCOCC1 (stereo not drawn)
inactive: [18] 107 % of control | [1] 94 % of control | [19] 108 % of control | [3] 91 % of control | [20] 97 % of control | [5] 91 % of control

Cc1nc(C)c(-c2ccc([N+](=O)[O-])cc2)o1
inactive: [21] 105 % of control | [22] 105 % of control | [23] 102 % of control

CC(=O)Oc1ccc2c(c1)C(=O)CCCCCC(=O)O2
inactive: dose: 50.0 mg/kg/injection, schedule: Q04DX003 (ip), vehicle: saline with Tween-80 95 % of control | [14] 117 % of control

CCOc1cc2ccc3c4cc(OC)c(OC)cc4c[n+](C)c3c2cc1OCC
inactive: dose: 100.0 mg/kg/injection, schedule: Q04DX002 (ip), vehicle: saline with Tween-80 98 % of control

O=C(Cc1ccccc1)Nc1ccc(Nc2ccccc2)cc1
inactive: dose: 200.0 mg/kg/injection, schedule: Q04DX002 (ip), vehicle: Klucel (hydroxypropylcellulose) (HPC) 100 % of control | dose: 400.0 mg/kg/injection, schedule: Q04DX002 (ip), vehicle: Klucel (hydroxypropylcellulose) (HPC) 95 % of control

O=C(Oc1ccc(Cl)cc1Cl)c1ccccc1
inactive: [11] 110 % of control | [12] 98 % of control | [13] 110 % of control | [14] 96 % of control | [16] 113 % of control | [17] 101 % of control

CC1(C)OC(=O)C(C(N)=O)C1c1ccc(Cl)cc1 (stereo not drawn)
inactive: [18] 103 % of control | [19] 104 % of control | [20] 103 % of control

CC/C(=C/c1ccccc1)C(N)=O
inactive: dose: 100.0 mg/kg/injection, schedule: Q01DX001 (ip), vehicle: steriod suspending solution 87 % of control | dose: 200.0 mg/kg/injection, schedule: Q01DX001 (ip), vehicle: steriod suspending solution 103 % of control

Cc1ccc2nc(-c3cccc([N+](=O)[O-])c3)oc(=O)c2c1
inactive: [12] 87 % of control | [14] 97 % of control | [17] 97 % of control

COc1ccc(CCN2CSC(=S)N(CCc3ccc(OC)c(OC)c3)C2)cc1OC
inactive: [10] 97 % of control | [7] 97 % of control | [24] 100 % of control | [8] 97 % of control | [15] 94 % of control | [9] 95 % of control

Cc1c2oc3c(C)ccc(C(=O)NC4C(=O)NC(C(C)C)C(=O)N5CCCCC5C(=O)N(C)CC(=O)N(C)C(C(C)C)C(=O)OC4C)c3nc-2c(C(=O)NC2C(=O)NC(C(C)C)C(=O)N3CCCCC3C(=O)N(C)CC(=O)N(C)C(C(C)C)C(=O)OC2C)c(N)c1=O (stereo not drawn) (I: TV[Pip][Sar][NMeV] / II: TV[Pip][Sar][NMeV]; ester I:1-I:C, II:1-II:C; linker I:N-II:N via Actinocin(9to1); configuration not given here)
inactive: dose: 0.5 mg/kg/injection, schedule: Q01DX001 (ip), vehicle: saline 105 % of control | dose: 0.5 mg/kg/injection, schedule: Q01DX009 (ip), vehicle: water 123 % of control | dose: 1.0 mg/kg/injection, schedule: Q01DX001 (ip), vehicle: saline 102 % of control | dose: 1.0 mg/kg/injection, schedule: Q01DX009 (ip), vehicle: water 104 % of control | dose: 1.8 mg/kg/injection, schedule: Q01DX001 (ip), vehicle: saline 116 % of control | dose: 2.0 mg/kg/injection, schedule: Q01DX001 (ip), vehicle: saline 112 % of control | dose: 2.6 mg/kg/injection, schedule: Q01DX001 (ip), vehicle: saline 109 % of control | dose: 6.0 mg/kg/injection, schedule: Q01DX001 (ip), vehicle: saline 103 % of control

O=C(CS(=O)(=O)Cc1ccccc1)c1ccccc1
inactive: [7] 98 % of control | [8] 98 % of control | [9] 101 % of control

COC1OC(CO)C(O)C(OC)C1OC (stereo not drawn)
inactive: [2] 93 % of control | [4] 103 % of control | [6] 106 % of control

COc1cc(/C=C/c2ccnc3ccccc23)cc(OC)c1OC
inactive: dose: 5.0 mg/kg/injection, schedule: Q01DX001 (ip), vehicle: saline 96 % of control | dose: 10.0 mg/kg/injection, schedule: Q01DX001 (ip), vehicle: saline 102 % of control | dose: 20.0 mg/kg/injection, schedule: Q01DX001 (ip), vehicle: saline 102 % of control | dose: 40.0 mg/kg/injection, schedule: Q01DX001 (ip), vehicle: saline 91 % of control

CN(C)c1ncnc2c1cnn2C
inactive: [25] 96 % of control | [26] 110 % of control

O=C1OC2CCCC1C2 (stereo not drawn)
inactive: dose: 50.0 mg/kg/injection, schedule: Q01DX001 (ip), vehicle: saline with Tween-80 104 % of control | [21] 100 % of control | [22] 100 % of control

O=C(CI)OCCCl
inactive: dose: 12.5 mg/kg/injection, schedule: Q01DX009 (ip), vehicle: other 94 % of control | dose: 25.0 mg/kg/injection, schedule: Q01DX009 (ip), vehicle: other 97 % of control | dose: 50.0 mg/kg/injection, schedule: Q01DX009 (ip), vehicle: other 97 % of control

CC[N+](CC)(CCOC(=O)C1C2CC3OC(=O)C1C3C2)Cc1ccccc1 (stereo not drawn)
inactive: dose: 12.5 mg/kg/injection, schedule: Q04DX003 (ip), vehicle: saline 89 % of control | dose: 25.0 mg/kg/injection, schedule: Q04DX003 (ip), vehicle: saline 89 % of control | dose: 50.0 mg/kg/injection, schedule: Q04DX003 (ip), vehicle: saline 106 % of control | [2] 93 % of control

CSc1cc(N)cc(C(=O)O)c1O
inactive: [11] 92 % of control | [13] 89 % of control | [16] 88 % of control

CC(=O)Nc1ccccc1.[Hg]
inactive: dose: 1.56 mg/kg/injection, schedule: Q01DX009 (ip), vehicle: saline with Tween-80 90 % of control | dose: 3.13 mg/kg/injection, schedule: Q01DX009 (ip), vehicle: saline with Tween-80 88 % of control

C(=Nc1ccccc1)c1ccccc1B1Oc2ccccc2O1
inactive: [10] 100 % of control | [24] 96 % of control | [15] 119 % of control

O=C(O)CCC(=O)NCCNC(=O)CC(=O)O
inactive: [18] 100 % of control | [19] 105 % of control | [20] 100 % of control

CCCCCCCCCCCCCCCc1cc(=O)n(-c2cccc([N+](=O)[O-])c2)n1C
inactive: [7] 96 % of control | [8] 94 % of control | [9] 92 % of control

CC1=CC(C)(C2(O)c3ccccc3-c3ccccc32)C=C(C)C1
inactive: [12] 98 % of control | [14] 95 % of control | [17] 95 % of control

CCCCC=C(C)C
inactive: dose: 50.0 mg/kg/injection, schedule: Q01DX001 (ip), vehicle: carboxymethylcellulose (CMC) 106 % of control | [25] 93 % of control | [26] 104 % of control | dose: 400.0 mg/kg/injection, schedule: Q01DX001 (ip), vehicle: carboxymethylcellulose (CMC) 104 % of control

Cc1ccc(C(C)(Cl)/N=N\C(C)(Cl)c2ccc([N+](=O)[O-])cc2)cc1 (stereo not drawn)
inactive: [12] 90 % of control | [14] 96 % of control | [17] 98 % of control

CCCCCCCCCCCCC1CC2CCCCC2C2CCCCC12 (stereo not drawn)
inactive: [21] 95 % of control | [22] 97 % of control | [23] 89 % of control

COc1ccc(OC)c(NC(=O)Nc2cc(Cl)ccc2C)c1
inactive: [10] 89 % of control | [24] 93 % of control
